From publication PMC9504208, “Comprehensive Study of Antiretroviral Drug Permeability at the Cervicovaginal Mucosa via an In Vitro Model” (Pharmaceutics, 2022)
Like-named read-outs stand apart in the source and are kept apart here. Values belong to the compound of their own block, whether it stands above or below them.

Key:
[1] = system: HEC-1A monolayer; experiment: Darunavir transfer across low-pH-adapted HEC-1A monolayers at apical pH 7.5 or 5.5 (LC-MS/MS); format: in vitro ADME, human; details: for % of darunavir transferred to the receiver compartment, absorptive direction: 2 h, n = 10
[2] = Bi-directional permeability (Papp) across HEC-1A dual chamber (Transwell) barrier model; format: in vitro ADME; details: human
Protocol: The apical chambers of 12-well polycarbonate and polyester systems (Corning Costar Corp, Cambridge, UK) were seeded with different densities of HEC-1A cells in 500 µL of the medium while 1500 µL culture medium was added to the basolateral chamber. -Medium in both chambers was changed every 48–72 h.

[3] = system: HEC-1A cells; experiment: Cell-associated drug and distribution between apical and basolateral compartments after absorptive permeability assay; format: in vitro ADME, human; details: for Cell-associated drug (HEC-1A cells): after absorptive permeability assays;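 on all read-outs here: transwell transport run over 2 h at 37 °C, radiolabelled drug quantified by liquid scintillation counting, with insert membranes also counted for mass balance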
[4] = system: HEC-1A barrier model; experiment: Permeability of labelled drug across HEC-1A model on coadministration with a second ARV; format: in vitro ADME, human; details: labelled drug 10 µM; for Absorptive permeability on coadministration with dapivirine: dapivirine 0–10 µM
[5] = system: HEC-1A cell layers
[6] = in vitro; details: human, pH 7.4
[7] = ref DrugBank; cited from earlier work
[8] = system: HEC-1A cell layers; experiment: Permeability across HEC-1A cell layers stimulated with poly(I:C); details: p > 0.05, ANOVA
[9] = system: drug transporter mRNA expression in HEC-1A cells; experiment: Drug transporter mRNA expression (RT-qPCR) in stimulated HEC-1A cells; format: cell-based, human; details: for Change in expression of drug transporters (panel of 17): 72 h stimulation
Protocol: (§1) Control was 0.1% DMSO with no drug. Cytokines were reconstituted in sterile and distilled water and added individually to cell cultures at the following concentrations: TNF-α (200 pg/mL), IL-1β (8 ng/mL), IL-6 (5 ng/mL) and IL-8 (100 ng/mL) were. […] Cells were stimulated for either drugs, cytokines or hormones for 72 h, before harvesting by centrifugation at 300× g for 10 min at 4 °C. For Lactobacillus crispatus a final MoI of 10 was used (10:1, bacterial cells:mammalian cell ratio) for co-culture in both HEC-1A and VK2/E6E7 cell lines. For Candida albicans, a final MoI of 1 for HEC-1A cells and 0.25 for VK2/E6E7 cells was used. Cells were incubated with fungal cells at 37 °C/5% CO2 for 24 h. All cell line stimulation experiments were conducted as a minimum of three biological repeats.
(§2) RNA extraction was performed using the RNeasy® Mini Kit (Qiagen, Manchester, UK). Cells were lysed by suspension in 600 μL of RLT Buffer with 1% β-mercaptoethanol (Sigma-Aldrich) and mechanical lysis into a QIAshredder (Qiagen). After the addition of 70% ethanol, the solution was loaded onto RNeasy columns for RNA purification as per the manufacturer’s instructions. DNase treatment was 15 min at room temperature. RNA was eluted from the columns with 30 μL of RNase-free ddH2O. Tapestation analysis was performed using an Agilent 2200 Tapestation system to determine the integrity of the RNA.
(§3) Synthesis of cDNA was performed using a Superscript® VILO™ kit (Life Technologies, Paisley, UK). Reverse transcription was performed at 25 °C for 10 min, 42 °C for 60 min and 85 °C for 5 min. The cDNA was then stored at −20 °C until RT-PCR assays.
(§4) SYBRgreen® PrecisionTM 2× qPCR Mastermix with ROX quencher (Primer Design, Southampton, UK) was used for all RT-qPCR assays. Individual primers were designed to target the HPRT1 and RPLP0 housekeeper genes (selected from an initial panel based on SD scores as a measure of the consistency of expression amongst all samples) in addition to seventeen ARV-associated drug transporters (9 ABC transporters and 8 SLC transporters) replicating the system contained in the TaqMan® 96-well Drug Transporter Array system (Life Technologies, Paisley, UK). Real-time quantitative PCR was performed using the 7900HT Fast Real-Time PCR system and data was analysed using the SDS 2.4 software (Applied Biosystems, Waltham, MA, USA). Cycling conditions were: 95 °C for 5 min, followed by 40 cycles of denaturation at 95 °C for 10 s, annealing at 60 °C for 10 s and extension at 72 °C for 10 s. Relative transcript levels in drug-stimulated cells were determined using the comparative Ct method (ΔΔCt method). Fold-change values of ±2–3 were considered minor, ±3–5 as moderate and >±5 as high.

[10] = system: drug transporter mRNA expression in VK2/E6E7 cells; experiment: Drug transporter mRNA expression (RT-qPCR) in stimulated VK2/E6E7 cells; format: cell-based, human; details: for Expression of uptake transporters OATP8 and CNT3 / P-gp mRNA level: 72 h cytokine stimulation
Protocol: as §1, §2, §3, §4

[11] = system: VK2/E6E7 cells; experiment: Intracellular accumulation of digoxin in cytokine-stimulated VK2/E6E7 cells; format: cell-based, human; details: 5 µM digoxin, 1 h; after cytokine stimulation
Protocol: A 500 μL sample from each well was stored and the remainder of the buffer was aspirated from the plates. The wells were then washed twice with ice-cold PBS to stop any further uptake of the drug. To each well, 500 μL of ddH2O was added and cells were removed using a cell scraper. The cell suspension was then transferred to individual tubes for mechanical cell lysis using a 21-gauge needle followed by a freeze-thaw cycle at -80 °C. Protein content for normalisation calculations was measured via a bicinchoninic acid assay. The solution was then centrifuged at 14,000× g for 15 min and the supernatants were stored at -80 °C until analysis by LC-MS/MS. Samples were centrifuged at 14,800 rpm for 5 min to remove cell debris. […] Analysis was performed on a Thermo Surveyor TSQ Quantum system using electrospray ionisation in positive ion mode. Samples (5 μL) were applied to a C18 column (Gemini 3μ, 150 × 3.0 mm, Phenomenex, Macclesfield, UK) maintained at 40 °C. […] The flow rate for both methods was 350 μL/min. […] Cytokines were reconstituted in sterile and distilled water and added individually to cell cultures at the following concentrations: TNF-α (200 pg/mL), IL-1β (8 ng/mL), IL-6 (5 ng/mL) and IL-8 (100 ng/mL) were. […] Cells were stimulated for either drugs, cytokines or hormones for 72 h, before harvesting by centrifugation at 300× g for 10 min at 4 °C. […] All cell line stimulation experiments were conducted as a minimum of three biological repeats.

[12] = system: HEC-1A cells; experiment: Cytokine production of HEC-1A cells stimulated with PAMPs (Luminex); format: cell-based, human; details: for Pro-inflammatory cytokine production: 24 h stimulation
Protocol: HEC-1A cells were stimulated with different PAMPs (pam 3CSK4, lipoteichoic acid, poly(I:C), Escherichia coli lipopolysaccharide, FSL-1, flagellin, imiquimod, zymosan) (InvivoGen, San Diego, CA, USA) diluted in cell culture media with incubation at 37 °C in 5% CO2 for 24 h. PAMPs were titrated to determine the optimal concentration for cytokine stimulation. Blank samples contained media only. After 24 h, the supernatant was collected for cytokine detection. Cytokine levels were determined using a Magnetic Luminex® Performance Assay kit (R&D Systems, Minneapolis, MN, USA) following the manufacturer’s instructions. Analyte-specific antibodies were pre-coated onto colour-coded microparticles and detection was carried out with a biotinylated antibody cocktail specific to the target cytokines and a streptavidin-phycoerythrin conjugate. Samples were resuspended in 100 µL of Washing Buffer and measured for a phycoerythrin-derived signal using a Luminex® 100 instrument.

[13] = 72 h hormone stimulation, vs ethanol control, increased

Compound: CN(C)C(=O)CCSC(SCCC(=O)O)c1cccc(/C=C/c2ccc3ccc(Cl)cc3n2)c1 (centres unmarked) [MK571]
Effect on absorptive transfer of darunavir ([1]; MK571 (50 µM) in donor compartment, apical pH 5.5): reduced the absorptive transfer of darunavir to the level observed at pH 7.5

Compound: CC(C)CN(C[C@@H](O)[C@H](Cc1ccccc1)NC(=O)O[C@H]1CO[C@H]2OCC[C@H]21)S(=O)(=O)c1ccc(N)cc1 [darunavir, Darunavir]
Papp A→B at 2 h ([2]; pH 7.4, read-out: Absorptive permeability Papp): 9.66 to 11.2 ×10⁻⁶ cm/s
Papp B→A at 2 h ([2]; pH 7.4, read-out: Secretory permeability Papp): 8.59 to 9.42 ×10⁻⁶ cm/s
% Drug Distribution Apical ([3]; 1 μM): 82.90 ± 1.76%
% Drug Distribution Basolateral ([3]; 1 μM): 15.13 ± 1.44%
% Drug Distribution Apical ([3]; 5 μM): 83.15 ± 2.61%
% Drug Distribution Basolateral ([3]; 5 μM): 14.55 ± 1.88%
% Drug Distribution Cell-Associated ([3]; 5 μM): 2.55 ± 1.22%
% Drug Distribution Apical ([3]; 10 μM): 83.36 ± 2.12%
% Drug Distribution Basolateral ([3]; 10 μM): 13.95 ± 1.75%
% Drug Distribution Cell-Associated ([3]; 10 μM): 2.70 ± 1.31%
% Drug Distribution Apical ([3]; 20 μM): 81.72 ± 1.61%
% Drug Distribution Basolateral ([3]; 20 μM): 15.31 ± 1.22%
% Drug Distribution Cell-Associated ([3]; 20 μM): 2.97 ± 1.27%
Cell-associated drug (HEC-1A cells) [3]: ≤ 3%
% of darunavir transferred to the receiver compartment, absorptive direction ([1]; apical pH 5.5, basal pH 7.5, p < 0.001): 30.1 ± 6.0%
% of darunavir transferred to the receiver compartment, absorptive direction ([1]; apical pH 7.5): 20 ±2.8%
Absorptive permeability on coadministration with dapivirine [4]: not altered
Permeabilities on coadministration with tenofovir ([4]; tenofovir 0–100 µM): no effect
Papp [5]: 8.45 ± 0.68 ×10⁻⁶ cm/s
Papp at 2 h, 10 µM [6]: 8.24 ± 0.6 ×10⁻⁶ cm/s
logP [7]: 2.82
Difference in Papp (A-B or B-A), poly(I:C)-stimulated vs unstimulated cell layers [8]: no significant differences

Papp A→B at 2 h ([2]; pH 7.4, Absorptive Papp of mannitol, 1% DMSO in donor compartment (initial dapivirine assay)): 2.5 to 2.61 ×10⁻⁶ cm/s
Papp A→B at 2 h ([2]; pH 7.4, Absorptive Papp of mannitol, paracellular marker in the tenofovir permeability assay): 2.09 to 3.1 ×10⁻⁶ cm/s
Papp B→A at 2 h ([2]; pH 7.4, Secretory Papp of mannitol, 1% DMSO in donor compartment (initial dapivirine assay)): 5.1 to 6.81 ×10⁻⁶ cm/s
Papp B→A at 2 h ([2]; pH 7.4, Secretory Papp of mannitol, paracellular marker in the tenofovir permeability assay): 2.7 to 2.85 ×10⁻⁶ cm/s
Papp at 2 h ([2]; pH 7.4, mannitol measured simultaneously in drug permeability assays, read-out: Papp (barrier integrity control)): < 4 ×10⁻⁶ cm/s
Papp [5]: 2.23 to 2.47 ×10⁻⁶ cm/s
Papp at 2 h, 10 µM [6]: 1.43 to 2.17 ×10⁻⁶ cm/s
Compound: OC[C@@H](O)[C@@H](O)[C@H](O)[C@H](O)CO [mannitol]

Papp A→B at 2 h ([2]; pH 7.4, apical to basolateral, over concentration range (tenofovir 0.1–100 µM; darunavir 0.1–20 µM, 0.01% DMSO), read-out: Absorptive permeability Papp): 1.76 to 2.06 ×10⁻⁶ cm/s
Papp B→A at 2 h ([2]; pH 7.4, basolateral to apical, over concentration range (tenofovir 0.1–100 µM; darunavir 0.1–20 µM, 0.01% DMSO), read-out: Secretory permeability Papp): 1.46 to 1.64 ×10⁻⁶ cm/s
efflux ratio at 2 h ([2]; pH 7.4, over concentration range tested, read-out: Efflux ratio (secretory/absorptive)): 0.77 to 0.83
% Drug Distribution Apical ([3]; 0.1 μM): 97.03 ± 0.28%
% Drug Distribution Basolateral ([3]; 0.1 μM): 2.63 ± 0.25%
% Drug Distribution Cell-Associated ([3]; 0.1 μM): 0.34 ± 0.06%
% Drug Distribution Apical ([3]; 1 μM): 96.85 ± 0.29%
% Drug Distribution Basolateral ([3]; 1 μM): 2.73 ± 0.24%
% Drug Distribution Cell-Associated ([3]; 1 μM): 0.42 ± 0.08%
% Drug Distribution Apical ([3]; 10 μM): 96.91 ± 0.27%
% Drug Distribution Basolateral ([3]; 10 μM): 2.79 ± 0.25%
% Drug Distribution Cell-Associated ([3]; 10 μM): 0.3 ± 0.06%
% Drug Distribution Apical ([3]; 100 μM): 96.59 ± 0.41%
% Drug Distribution Basolateral ([3]; 100 μM): 2.99 ± 0.36%
% Drug Distribution Cell-Associated ([3]; 100 μM): 0.42 ± 0.17%
Recovery from the apical compartment after absorptive permeability assays ([3]; % of initial concentration, no Poloxamer): 96–97%
Cell-associated drug (HEC-1A cells) [3]: ≤ 0.5%
Absorptive permeability on coadministration with dapivirine [4]: not altered
Absorptive or secretory permeability on coadministration with darunavir ([4]; darunavir 0–10 µM): did not significantly alter
Papp [5]: 1.45 ± 0.21 ×10⁻⁶ cm/s
Papp at 2 h, 10 µM [6]: 1.06 ± 0.05 ×10⁻⁶ cm/s
Difference in Papp (A-B or B-A), poly(I:C)-stimulated vs unstimulated cell layers [8]: no significant differences
Compound: C[C@H](Cn1cnc2c(N)ncnc21)OCP(=O)(O)O [tenofovir, Tenofovir]

Compound: C[C@]12CC[C@@H]3c4ccc(O)cc4CC[C@H]3[C@@H]1CC[C@@H]2O [β-estradiol]
BCRP mRNA expression, fold-change [9, 13]: 2.64 ± 0.44 fold
CNT3 mRNA expression, fold-change [10, 13]: 3.70 ± 1.43 fold
MRP3 mRNA expression, fold-change [10, 13]: 2.14 ± 0.30 fold

Compound: IL-1β: pro-inflammatory cytokine
Effect on intracellular uptake of digoxin [11]: significantly reduced
Change in expression of drug transporters (panel of 17) [9]: No changes
Expression of uptake transporters OATP8 and CNT3 [10]: induce the expression
P-gp mRNA level [10]: increased

Compound: IL-6: pro-inflammatory cytokine
Effect on intracellular uptake of digoxin [11]: not
Change in expression of drug transporters (panel of 17) [9]: No changes
Expression of uptake transporters OATP8 and CNT3 [10]: induce the expression
P-gp mRNA level [10]: increased

Compound: IL-8: pro-inflammatory cytokine
Change in expression of drug transporters (panel of 17) [9]: No changes

Compound: TNF-α
Effect on intracellular uptake of digoxin [11]: significantly reduced
Change in expression of drug transporters (panel of 17) [9]: No changes
Expression of uptake transporters OATP8 and CNT3 [10]: induce the expression
P-gp mRNA level [10]: increased

Compound: flagellin
Pro-inflammatory cytokine production [12]: stimulated production of IL-8, GM-CSF and TNF-α

Compound: poly(I:C)
Pro-inflammatory cytokine production [12]: induced production of IL-6, IL-8, IL-1α, GM-CSF and TNF-α
Optimum concentration for cytokine stimulation ([12]; titration 1–50 µg/ml): 25 µg/mL
